Source: patent US20230104503A1, “SMALL MOLECULE COMPOUNDS” (THE REGENTS OF THE UNIVERSITY OF CALIFORNIA, priority 2021, published 2023)

Tests used:
[1] = test system: CD8 cells isolated from p14 transgenic mice; test: CD8 CTV-labelled proliferation assay; format: cell-based, mouse; details: activated for 72 hours; relative to RAP35 and rapamycin
Description: The five analogs and rapamycin were assayed for their effect on proliferation and correlation to p70S6K inhibitory activity. […] The proliferation was measured by FACS. The five analogs were tested at varying concentrations (10 nM, 100 nM, and 100 μM), activated for 72 hours with rapamycin and DMSO treated controls.
CD8 cells were isolated from p14 transgenic mice, then labelled with CTV. The labelled cells then were activated with plate-bound anti-CD3 (5 μg/mL) and soluble anti-CD28 (2 μg/mL), along with rapamycin, rapamycin analog, or DMSO. After activation of 48 hours and 72 hours, the cells were collected to assay the CVT labelling signal using flow cytometry. All rapamycin analogs decrease proliferation in CD8 cells, with varying potency (FIG. 12).

[2] = test system: mTOR; test: Phospho-flow (FACS) of phospho-p70S6K / p-S6 in activated mouse T-cells; format: cell-based
Description: Whole splenocyte from OT1 B6 mice was extracted. […] Cells were activated with compounds for 30 mins, 1 hour, 2 hours, and overnight. For each time point, p-S6, a downstream of mTORC1 pathway, was gated on low and high based on the DMSO and no stimulation control.

[3] = test system: naïve CD4+ mouse T-cells; test: FACS for expansion of CD62L+ memory T-cells; format: cell-based
Description: RAP23 was further evaluated by treating naïve CD4+ T-cells at multiple concentrations (1 nM to 1 uM) for expansion of CD62L+ memory T-cells. […] These 5 compounds were identified to have reduced immunosuppression (with improved safety) with maximum and durable expansion of memory T-cells.

[4] = test system: naïve CD4+ mouse T cells; test: FACS of stimulated naïve CD4+ mouse T-cells for CD4+CD25+FOXP3+; details: 1 uM
[5] = test system: conventional T cells; test: Treg assays for RAP35: culture of conventional T cells; format: cell-based
[6] = test system: Treg cells; test: Treg assays for RAP35: Treg cells with expander beads; format: cell-based; details: 100 nM
[7] = Stability during semi-preparative HPLC; format: physicochemical; details: 65% acetonitrile with 35% water, 50° C.
Description: The crude was then dissolved in acetonitrile, and the resulting solution was subjected to semi-preparation using an Agilent Zorbax column (SB-C18, 5 μm, 9.4×250 mm, Agilent Technologies Inc., CA) heated to 50° C. by isocratic elution of 65% acetonitrile with 35% water at a flow rate of 3.5 mL/min. The absorbance at 278 nm wavelength was monitored.

[8] = humans; cited from earlier work

CO[C@H]1C[C@@H]2CC[C@@H](C)[C@@](O)(O2)C(=O)C(=O)N2CCCC[C@H]2C(=O)O[C@H]([C@H](C)C[C@@H]2CC[C@@H](O)[C@H](OC)C2)CC(=O)[C@H](C)/C=C(\C)[C@@H](O)[C@@H](OC)C(=O)[C@H](C)CC/C=C/C=C/C=C/1C [RAP23, (3S,6R,7E,9R,10R,12R,15E,17E,19E,21S,23S,26R,27R,34aS)-9,27-dihydroxy-3-((R)-1-((1S,3R,4R)-4-hydroxy-3-methoxycyclohexyl)propan-2-yl)-10,21-dimethoxy-6,8,12,20,26-pentamethyl-9,10,12,13,14,21,22,23,24,25,26,27,32,33,34,34a-hexadecahydro-3H-23,27-epoxypyrido[2,1-c][1]oxa[4]azacyclohentriacontine-1,5,11,28,29(4H,6H,31H)-pentaone]
proliferation of CTV-labelled CD8 cells [1]: increased proliferation | inhibition of the p70S6 high signal ([2]; even at 1 uM): never fully inhibited | portion of cells possessing a phospho-p70S6K high/CD62L+high phenotype ([3]; 1 nM to 1 uM): 7-10% | generation of memory versus inhibition of proliferation ([3]; overall assessment): promote potent generation of memory without potently inhibiting proliferation | phospho-p70S6K low/CD62L+high phenotype ([3]; relative to all doses of rapamycin (including 1 nM)): reduced

CO[C@H]1C[C@@H]2CC[C@@H](C)[C@@](O)(O2)C(=O)C(=O)N2CCCC[C@H]2C(=O)O[C@H](CC[C@@H]2CC[C@@H](O)[C@H](OC)C2)CC(=O)[C@H](C)/C=C(\C)[C@@H](O)[C@@H](OC)C(=O)[C@H](C)C[C@H](C)/C=C/C=C/C=C/1C [RAP35, (3R,6R,7E,9R,10R,12R,14S,15E,17E,19E,21S,23S,26R,27R,34aS)-9,27-dihydroxy-3-(2-((1S,3R,4R)-4-hydroxy-3-methoxycyclohexyl)ethyl)-10,21-dimethoxy-6,8,12,14,20,26-hexamethyl-9,10,12,13,14,21,22,23,24,25,26,27,32,33,34,34a-hexadecahydro-3H-23,27-epoxypyrido[2,1-c][1]oxa[4]azacyclohentriacontine-1,5,11,28,29(4H,6H,31H)-pentaone]
p70S6 high cells ([2]; following overnight stimulation, therapeutic concentrations (1-200 nM)): significantly reduced | FOXP3+ count [4]: 45.8 | anti-inflammatory effects (Cell Proliferation Dye and phenotypic markers) ([5]; 100 nM): promising anti-inflammatory effects | CCR7 expression ([5]; 100 nM, conventional T cells): increased | CD45RO expression ([5]; 100 nM, conventional T cells): decreased | mitochondrial membrane potential (MitoProbe) ([5]; compared to stimulated CD3 T cells): reduced | frequency of Treg cells [6]: reduce | expression of CCR7 ([6]; Treg cells): reduce | expression of CD45RO ([6]; Treg cells): reduce | expression of CXCR3 ([6]; Treg cells): reduce | phosphorylation of 4EBP1 ([6]; Treg cells): reduce | phosphorylation of S6 ([6]; Treg cells): reduce

CO[C@H]1C[C@@H]2CC[C@@H](C)[C@@](O)(O2)C(=O)C(=O)N2CCCC[C@H]2C(=O)O[C@H](CC[C@@H]2CC[C@@H](O)[C@H](OC)C2)CC(=O)[C@H](C)/C=C(\C)[C@@H](O)CC(=O)[C@H](C)C[C@H](C)/C=C/C=C/C=C/1C [RAP35/27A, (3R,6R,7E,9S,12R,14S,15E,17E,19E,21S,23S,26R,27R,34aS)-9,27-dihydroxy-3-(2-((1S,3R,4R)-4-hydroxy-3-methoxycyclohexyl)ethyl)-21-methoxy-6,8,12,14,20,26-hexamethyl-9,10,12,13,14,21,22,23,24,25,26,27,32,33,34,34a-hexadecahydro-3H-23,27-epoxypyrido[2,1-c][1]oxa[4]azacyclohentriacontine-1,5,11,28,29(4H,6H,31H)-pentaone]
stability in the process of semi-preparation [7]: tended to be unstable

CO[C@H]1C[C@@H]2CC[C@@H](C)[C@@](O)(O2)C(=O)C(=O)N2CCCC[C@H]2C(=O)O[C@H]([C@H](C)C[C@@H]2CC[C@@H](O)[C@H](OC)C2)CC(=O)[C@H](C)/C=C(\C)[C@@H](O)[C@@H](OC)C(=O)[C@H](C)C[C@H](C)/C=C/C=C/C=C/1C [rapamycin, reference compound]
FOXP3+ count [4]: 53.3 | terminal half-life [8]: 24 to 48 h
